In the supplement of paper PMC8092582:
± gives the standard deviation of the averaged measurements.

System: HeLa
Assay: cell viability (CellTiter-Glo) relative to median of lowest-dilution wells of all drugs (fraction); higher = more viable cells
Experimental: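 HeLa control and CRISPR DDX11 knockout cells were seeded in 384-well plates and incubated for 72 h with each of 64 […] drugs at six concentrations. Viability was read with CellTiter-Glo and normalised to the median of the lowest (6th) dilution wells of all drugs. Two biological replicates (BR1, BR2) are averaged; the concentration unit is not stated.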

[1] = drug concentration (unit not stated): 0.01, genotype: DDX11 knockout
[2] = drug concentration (unit not stated): 0.01, genotype: control (DDX11 wild type)
[3] = drug concentration (unit not stated): 0.04, genotype: DDX11 knockout
[4] = drug concentration (unit not stated): 0.04, genotype: control (DDX11 wild type)
[5] = drug concentration (unit not stated): 0.12, genotype: DDX11 knockout
[6] = drug concentration (unit not stated): 0.12, genotype: control (DDX11 wild type)
[7] = drug concentration (unit not stated): 0.37, genotype: DDX11 knockout
[8] = drug concentration (unit not stated): 0.37, genotype: control (DDX11 wild type)
[9] = drug concentration (unit not stated): 1.11, genotype: DDX11 knockout
[10] = drug concentration (unit not stated): 1.11, genotype: control (DDX11 wild type)
[11] = drug concentration (unit not stated): 3.33, genotype: DDX11 knockout
[12] = drug concentration (unit not stated): 3.33, genotype: control (DDX11 wild type)
[13] = drug concentration (unit not stated): 10, genotype: DDX11 knockout
[14] = drug concentration (unit not stated): 10, genotype: control (DDX11 wild type)

Row | SMILES | cell viability [1] | cell viability [2] | cell viability [3] | cell viability [4] | cell viability [5] | cell viability [6] | cell viability [7] | cell viability [8] | cell viability [9] | cell viability [10] | cell viability [11] | cell viability [12] | cell viability [13] | cell viability [14]
1 | COc1ncc(-c2ccc3nccc(-c4ccnnc4)c3c2)cc1NS(=O)(=O)c1ccc(F)cc1F | 0.657 ± 0.037 | 0.774 ± 0.23 | 0.57 ± 0.044 | 0.661 ± 0.17 | 0.467 ± 0.073 | 0.528 ± 0.19 | 0.33 ± 0.046 | 0.458 ± 0.18 | 0.326 ± 0.042 | 0.416 ± 0.12 | 0.304 ± 0.04 | 0.373 ± 0.12 |  | 
2 | CC(C)(C)Cn1c(N)nc2ccc(-c3[nH]c(C(C)(C)C)nc3-c3ccc(F)cc3)nc21 |  |  | 0.937 ± 0.044 | 0.991 ± 0.022 | 0.96 ± 0.11 | 1.03 ± 0.022 | 0.942 ± 0.088 | 0.988 ± 0.15 | 0.921 ± 0.072 | 1.02 ± 0.1 | 0.84 ± 0.03 | 1.06 ± 0.15 | 0.737 ± 0.061 | 1.03 ± 0.25
3 | Nc1nc(F)nc2c1ncn2[C@@H]1O[C@H](COP(=O)(O)O)[C@@H](O)[C@@H]1O [Fludarabine Phosphate (Fludara)] |  |  | 1.0709 ± 0.00057 | 1.04 ± 0.014 | 1.03 ± 0.061 | 1.04 ± 0.012 | 1.02 ± 0.12 | 1.0367 ± 0.00023 | 1.08 ± 0.024 | 1.07 ± 0.029 | 1.06 ± 0.046 | 1.15 ± 0.028 | 1.07 ± 0.027 | 1.16 ± 0.12
4 | C[C@@H]1COCCN1c1cc(-c2ccnn2C)c2ccnc(-c3ccn[nH]3)c2n1 |  |  | 1.03 ± 0.056 | 1.022 ± 0.0024 | 0.981 ± 0.083 | 1.02 ± 0.077 | 0.864 ± 0.021 | 0.959 ± 0.29 | 0.517 ± 0.036 | 0.696 ± 0.19 | 0.313 ± 0.045 | 0.398 ± 0.16 | 0.19 ± 0.086 | 0.227 ± 0.096
5 | O=c1cc(N2CCOCC2)oc2c(-c3cccc4c3sc3ccccc34)cccc12 [NU7441] |  |  | 0.982 ± 0.06 | 0.9779 ± 0.0026 | 0.953 ± 0.032 | 0.963 ± 0.011 | 1.02 ± 0.073 | 0.9893 ± 0.0052 | 0.972 ± 0.013 | 1.019 ± 0.0044 | 0.918 ± 0.066 | 0.992 ± 0.14 | 0.834 ± 0.15 | 0.935 ± 0.37
6 | CC(=O)O[C@H]1C(=O)[C@@]2(C)[C@H]([C@H](OC(=O)c3ccccc3)[C@]3(O)C[C@H](OC(=O)[C@H](O)[C@@H](NC(=O)c4ccccc4)c4ccccc4)C(C)=C1C3(C)C)[C@]1(OC(C)=O)CO[C@@H]1C[C@@H]2O [Paclitaxel (Taxol)] | 0.44 ± 0.12 | 0.515 ± 0.11 | 0.26 ± 0.017 | 0.379 ± 0.11 | 0.203 ± 0.0074 | 0.148 ± 0.021 | 0.2001 ± 0.00037 | 0.169 ± 0.016 | 0.197 ± 0.031 | 0.2 ± 0.042 | 0.179 ± 0.033 | 0.139 ± 0.0065 |  | 
7 | CC(C)C[C@H](NC(=O)[C@H](Cc1ccccc1)NC(=O)c1cnccn1)B(O)O [Bortezomib (Velcade)] | 0.863 ± 0.14 | 0.807 ± 0.22 | 0.215 ± 0.22 | 0.169 ± 0.17 | 0.0261 ± 0.012 | 0.0235 ± 0.00034 | 0.0196 ± 0.002 | 0.0189 ± 0.00099 | 0.0168 ± 0.0011 | 0.0168 ± 0.0026 | 0.0124 ± 0.00057 | 0.0137 ± 0.003 |  | 
8 | Nc1ccn([C@@H]2O[C@H](CO)[C@@H](O)[C@@H]2O)c(=O)n1 [Cytarabine] | 1.05 ± 0.017 | 1.02 ± 0.028 | 1 ± 0.016 | 1.02 ± 0.058 | 0.987 ± 0.12 | 1.02 ± 0.096 | 0.728 ± 0.11 | 0.994 ± 0.21 | 0.682 ± 0.14 | 0.907 ± 0.41 |  |  |  | 
9 | O=C(Nc1c[nH]nc1-c1nc2ccc(CN3CCOCC3)cc2[nH]1)NC1CC1 [AT9283] | 1.03 ± 0.023 | 0.988 ± 0.066 | 0.94 ± 0.015 | 0.939 ± 0.053 | 1.07 ± 0.076 | 1 ± 0.042 | 1.04 ± 0.046 | 1.07 ± 0.069 | 0.769 ± 0.4 | 0.799 ± 0.063 | 0.469 ± 0.41 | 0.504 ± 0.12 |  | 
10 | COc1cc2c(cc1O)CCN[C@]21CS[C@@H]2c3c(OC(C)=O)c(C)c4c(c3[C@H](COC1=O)N1[C@@H]2[C@H]2c3c(cc(C)c(OC)c3O)C[C@@H]([C@@H]1O)N2C)OCO4 [Trabectedin (Yondelis)] | 1.061 ± 0.0098 | 1.05 ± 0.0085 | 1.01 ± 0.044 | 1 ± 0.031 | 1 ± 0.034 | 1.02 ± 0.034 | 0.9874 ± 0.0059 | 1.02 ± 0.025 | 0.913 ± 0.14 | 1.034 ± 0.0075 |  |  |  | 
11 | Nc1nc2[nH]cnc2c(=S)[nH]1 [Thioguanine] |  |  | 1.03 ± 0.045 | 1.04 ± 0.04 | 0.992 ± 0.017 | 0.971 ± 0.044 | 0.94 ± 0.039 | 0.762 ± 0.065 | 0.731 ± 0.15 | 0.428 ± 0.15 | 0.536 ± 0.12 | 0.433 ± 0.21 | 0.239 ± 0.025 | 0.387 ± 0.2
12 | N.N.[Cl][Pt][Cl] [Cisplatin] |  |  | 0.76437 ± 0.00042 | 0.986 ± 0.093 | 0.541 ± 0.11 | 0.885 ± 0.29 | 0.233 ± 0.12 | 0.464 ± 0.12 | 0.0768 ± 0.043 | 0.112 ± 0.0088 | 0.0231 ± 0.0084 | 0.024 ± 0.0028 | 0.0148 ± 0.0023 | 0.0159 ± 0.0015
